Series [1] has as its system inducible nitric oxide synthase (iNOS) in rat astrocytes. Particulars: cited from earlier work.
In series [2] the test system is RAW264.7 cells (murine macrophage). The series can be described thus: Inhibition of nitric oxide production in vitro (nitrite by Griess reagent in LPS-stimulated macrophage cells). Type of series: cell-based. Particulars: Mus musculus, LPS 1 μg/mL, 24 hours, test solution 25-200 μM, nitrite by Griess reagent at 550 nm, Mean ± S.E. of 4-6 observations, read-out: IC50 (inhibition of LPS-induced NO production). How it is done:
• 1. Prepare the cell culture medium DMEM (Dulbecco's modified eagle medium) with 10% fetal calf serum and 10% penicillin-streptomycin. Grow RAW264.7 cells (murine macrophage) in the medium in an incubator at 37° C. under 5% CO2 and saturated water vapor. • 2. Dissolve each test compound in DMSO to make a stock solution. Prepare the test solutions by making suitable dilutions of each stock solution with DMEM. • 3. Add the LPS solution (final concentration=1 μg/mL) and the test solution (final concentration ranging from 25, 50, 100, and up to 200 μM) to individual cell cultures and place in the incubator for 24 hours. • 4. In vitro Nitrite quantification: The production of NO was determined by measuring the accumulated levels of nitrite in culture supernatants with the Griess reagent in LPS-stimulated macrophage cells. • (a) Withdraw 100 μL of the medium from each cell culture and place in a 96-well plate microplate. Add 100 μL of Griess reagent to the medium at room temperature and cover with aluminum foil for 10 minutes. • (b) Measure the absorption by a Dynatech ELISA reader at 550 nm. NaNO2 was used as the standard to calculate the nitrite concentration. • (c) Calculate the % inhibiiton by the following equation: […]
Wherein RM is the reading of medium only, RM+L is the reading of medium with LPS, RM+L+C is the reading of medium with LPS and test compound.
In general terms: The Griess reaction detects nitrite, a stable product of nitric oxide.

As to `Cc1oncc1C(=O)Nc1ccc(C(F)(F)F)cc1` [lefunomide, leflunomide], the “inhibition of activation of iNOS” value in series [1] is on record as “inhibit activation of iNOS in rat astrocytes”.
As a reminder, the IC50 is the point on the concentration scale where inhibition reaches its midpoint. By melting point is commonly meant the temperature, or range, at which the solid turns liquid. With `Cc1cc(C(=O)Nc2ccc(NC(=O)c3cc(C)on3)cc2)no1` [Compound 14c], the melting point was in the range of 178 to 180 °C. In addition, the IC50 in series [2] worked out at 0.6 ± 0.01 µM.
The like results for `Cc1cc(C(=O)Oc2ccc(OC(=O)c3cc(C)on3)cc2)no1` [Compound 15c] were, in that order, 148 to 150 °C and 7.6 ± 0.4 µM.
On to `C/C(O)=C(\C#N)C(=O)Nc1ccc(C(F)(F)F)cc1` [Compound A771726, reference compound], for which the IC50 in series [2] was 175 ± 4.7 µM.

Values taken from patent US7291743B2, “Isoxazole derivatives and methods of treating nitric oxide mediated diseases” (Geneblue Corporation, priority 2005, dated 2007).
